Reference: patent publication US10031127B2, “Method for separating aggregates of malignant cells and aggregates from stromal cells of a malignant tumour tissue sample” (Flacod GmbH, priority 2012, dated 2018)

Columns and labels:
[1] = system: clusters of malignant cells and/or stromal cell clusters of malignant lung tumors (fractionated and unfractionated digestion products); experiment: chemosensitivity to cisplatin, colony formation on ECM-coated culture plates; assay type: cell-based; details: 6000 nM cisplatin, 3 days incubation, most of the fractionated and unfractionated digestion products
Method: (§1) Samples were freshly resected from malignant lung tumors of various histologies, then purified and minced. Tumor tissue samples of 5 to 10 mg per 1 mL were suspended in RPMI 1640 culture medium with an FBS content of 10%. These suspensions were subjected to a collagenase digestion, preferably using Clostridium histolyticum collagenase (230 CDU/mL) for a period of 4 to 5 hours at 36° C. to 37° C., preferably at 36.5° C. Next the digested product was centrifuged at 50×g, the supernatant was discarded and the pellet was dissolved and resuspended in 1 mL fresh culture medium. Each test preparation was transferred to a Petri dish and adjusted with culture medium to a concentration corresponding to 5 to 10 mg tumor sample wet weight per 1 mL culture medium.
(§2) The cell suspension of each test preparation (test run) was picked up with a 1 mL pipette tip (another aspiration device can also be used) and then discharged again, 4 to 5 times in succession, and thereby subjected to a treatment with hydrodynamic shearing forces. Next, with the help of an inverse microscope equipped with a phase contrast lens system, cell clusters of phenotypically the same cells were detected and each was transferred to a separate culture vessel using injection cannulas no. 23 (diameter 0.6 mm, length 60-80 mm) attached to 2 mL injection syringes. […]

[2] = system: isolated stromal cell clusters of malignant lung tumors; experiment: chemosensitivity to cisplatin, isolated stromal cell clusters; assay type: cell-based; details: isolated microscopically identified stromal cell clusters, in the absence of malignant cells; 3 days, 0-6000 nM cisplatin
Method: as §1, §2

N.N.[Cl][Pt][Cl] [cisplatin]
colony formation ex vivo in the presence of cisplatin [1]: capable of forming colonies ex vivo even in the presence of 6000 nM cisplatin
cisplatin resistance of stromal cell clusters [2]: often have cisplatin resistance even in the absence of malignant cells
